Source: patent US12421226B2, “Heteroaryl compounds as necrosis inhibitors, composition and method using the same” (Accro Bioscience (HK), priority 2019, dated 2025)

Key:
[1] = test system: L929 mouse skin fibroblast cells; experiment: Necroptosis inhibition in L929 cell assay (TNF-α/z-VAD induced, cell viability by ATP levels); assay type: cell-based; conditions: 1 h pre-treatment with compound, then TNF-α 40 ng/mL + z-VAD 20 μM for 48 hours
Protocol: 2. Compounds Tested for Necroptosis Inhibition Activities in L929 Cell Assay
(§1) Mouse L929 mouse skin fibroblast cells were added to 96-well plates and then were pre-treated with 10 μM of the test compound for one hour. Then the cells were treated with TNF-α (40 ng/mL, lab-made) and z-VAD (capase inhibitor, from calbiochem) (20 μM) for 48 hours, and the viability of cells was quantified by detecting adenosine triphosphate (ATP) levels. DMSO pretreatment group was used as negative controls, Nec-1 (known necroptosis inhibitor, from Biomol) pretreatment group was used as positive controls.

HT29 cells = experiment: Necroptosis inhibition in HT29 cell assay (TNF-α/Smac mimetic/z-VAD induced, cell viability); assay type: cell-based; conditions: then TNF-α 40 ng/mL + Smac mimetic 100 nM + z-VAD 20 μM for 48 hours
Protocol: 1. Compounds Tested for Necroptosis Inhibition Activities in HT29 Cell Assay
as §1, with “For this assay, HT29” for “Mouse L929 mouse skin fibroblast”, “tumor necrosis factor alpha (TNF-α, 40 ng/mL), Smacmimetic (cIAP inhibitor) (100 nM)” for “TNF-α (40 ng/mL, lab-made)”, “quantified.” for “quantified by detecting adenosine triphosphate (ATP) levels.”

[2] = Homo sapiens, HT-29, 1 h pre-treatment with compound

## CNC(=O)Nc1nc2ccc(-c3cnc4scc(C(=O)NC5CCCCC5)c4c3)cc2s1 [Compound C20, N-cyclohexyl-5-[2-(methylcarbamoylamino)-1,3-benzothiazol-6-yl]thieno[2,3-b]pyridine-3-carboxamide]
[1]; Mus musculus
  IC50: 0.6 nM
HT29 cells; [2]
  IC50: 1.6 nM

## O=C(Nc1nc2ccc(-c3cnc4ccn(C(=O)OC5CCOCC5)c4c3)cc2s1)C1CC1 [Compound C5, tetrahydropyran-4-yl 6-[2-(cyclopropanecarbonylamino)-1,3-benzothiazol-6-yl]pyrrolo[3,2-b]pyridine-1-carboxylate]
[1]; Mus musculus
  IC50: 17 nM
HT29 cells; [2]
  IC50: 5.6 nM

## O=C(Nc1nc2ccc(-c3cnc4ccn(C(=O)OC5CCOCC5)c4c3)nc2s1)C1CC1 [Compound C3, tetrahydropyran-4-yl 6-[2-(cyclopropanecarbonylamino)thiazolo[5,4-b]pyridin-5-yl]pyrrolo[3,2-b]pyridine-1-carboxylate]
[1]; Mus musculus
  IC50: 72.8 nM
HT29 cells; [2]
  IC50: 9.6 nM

## O=C(NC1CCCCC1)c1nsc2ncc(-c3ccc4nc(NC(=O)C5CC5)sc4c3)cc12 [Compound C23, N-cyclohexyl-5-[2-(cyclopropanecarbonylamino)-1,3-benzothiazol-6-yl]isothiazolo[5,4-b]pyridine-3-carboxamide]
[1]; Mus musculus
  IC50: 1.7 nM
HT29 cells; [2]
  IC50: 5.3 nM

## O=C(NC1CCC(F)(F)CC1)c1nsc2ncc(-c3ccc4nc(NC(=O)C5CC5)sc4c3)cc12 [Compound C30, 5-[2-(cyclopropanecarbonylamino)-1,3-benzothiazol-6-yl]-N-(4,4-difluorocyclohexyl)isothiazolo[5,4-b]pyridine-3-carboxamide]
[1]; Mus musculus
  IC50: 0.8 nM
HT29 cells; [2]
  IC50: 10 nM

## O=C(NC1CCOCC1)c1nsc2ncc(-c3ccc4nc(NC(=O)C5CC5)sc4c3)cc12 [Compound C14, 5-[2-(cyclopropanecarbonylamino)-1,3-benzothiazol-6-yl]-N-tetrahydropyran-4-yl-isothiazolo[5,4-b]pyridine-3-carboxamide]
[1]; Mus musculus
  IC50: 1.3 nM
HT29 cells; [2]
  IC50: 4.7 nM

## O=C(Nc1nc2ccc(-c3cnc4ccn(C(=O)OC5CCC(F)(F)CC5)c4c3)cc2s1)C1CC1 [Compound C4, (4,4-difluorocyclohexyl) 6-[2-(cyclopropanecarbonylamino)-1,3-benzothiazol-6-yl]pyrrolo[3,2-b]pyridine-1-carboxylate]
[1]; Mus musculus
  IC50: 3.2 nM
HT29 cells; [2]
  IC50: 83 nM

## O=C(NC1CCOCC1)c1csc2ncc(-c3ccc4nc(NC(=O)C5CC5)sc4c3)cc12 [Compound C12, 5-[2-(cyclopropanecarbonylamino)-1,3-benzothiazol-6-yl]-N-tetrahydropyran-4-yl-thieno[2,3-b]pyridine-3-carboxamide]
[1]; Mus musculus
  IC50: 1.5 nM
HT29 cells; [2]
  IC50: 7.3 nM

## O=C(Nc1nc2ccc(-c3cnc4ccn(C(=O)CC5CCOCC5)c4c3)cc2s1)C1CC1 [Compound C8, N-[6-[1-(2-tetrahydropyran-4-ylacetyl)pyrrolo[3,2-b]pyridin-6-yl]-1,3-benzothiazol-2-yl]cyclopropanecarboxamide]
[1]; Mus musculus
  IC50: 17 nM
HT29 cells; [2]
  IC50: 440 nM

## O=C(Nc1cn2cc(-c3cnc4ccn(C(=O)OC5CCOCC5)c4c3)ccc2n1)C1CC1 [Compound C6, tetrahydropyran-4-yl 6-[2-(cyclopropanecarbonylamino)imidazo-[1,2-a]pyridin-6-yl]pyrrolo[3,2-b]pyridine-1-carboxylate]
[1]; Mus musculus
  IC50: 50 nM
HT29 cells; [2]
  IC50: 56 nM

## CN1C(=O)C(Cc2c[nH]c3ccccc23)NC1=S (stereo not shown) [Nec-1, reference compound]
[1]
  IC50: 1250 nM
HT29 cells; 1 h pre-treatment with compound
  IC50: 300 nM
